Reference: paper PMC9090415, “Discovery of small molecule inhibitors of Plasmodium falciparum apicoplast DNA polymerase” (Journal of Enzyme Inhibition and Medicinal Chemistry, 2022)
pIC50: −log10 of the molar value.

Biological target: P. falciparum apicoplast DNA polymerase (Pf-apPOL) (Plasmodium falciparum, UniProt Q8ILY1)
Assay: Fluorescence-based high-throughput DNA polymerase assay (molecular beacon), primary screen and dose-response;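 as to % inhibition ApPOL 90': test concentration in µM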;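 as to % inhibition apPOL 180': test concentration in µM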
Type: biochemical
Method in brief: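 Single-point screening used 10 µM compound with 20 nM polymerase, 20 nM hairpin substrate and 6 µM dNTPs for 90 min at 25 °C. Confirmatory titrations (2.5–80 µM) followed fluorescence at three times, and IC50 was derived from a fit including a cooperativity term n.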

[1] = supplemental file 2, sheet IC50 nontoxic compounds; Pf-apPOL
[2] = 'DNA Pol' of the 186 hits list (primary screen result); unit not given; 90 min, 10 µM
[3] = DRC-2, 5', concentration 20 (unit not given)
[4] = primary screen value of the library well; unit not given; 90 min, 10 µM

Chain of P. falciparum apicoplast DNA polymerase (Pf-apPOL) (Q8ILY1 entry or part of it): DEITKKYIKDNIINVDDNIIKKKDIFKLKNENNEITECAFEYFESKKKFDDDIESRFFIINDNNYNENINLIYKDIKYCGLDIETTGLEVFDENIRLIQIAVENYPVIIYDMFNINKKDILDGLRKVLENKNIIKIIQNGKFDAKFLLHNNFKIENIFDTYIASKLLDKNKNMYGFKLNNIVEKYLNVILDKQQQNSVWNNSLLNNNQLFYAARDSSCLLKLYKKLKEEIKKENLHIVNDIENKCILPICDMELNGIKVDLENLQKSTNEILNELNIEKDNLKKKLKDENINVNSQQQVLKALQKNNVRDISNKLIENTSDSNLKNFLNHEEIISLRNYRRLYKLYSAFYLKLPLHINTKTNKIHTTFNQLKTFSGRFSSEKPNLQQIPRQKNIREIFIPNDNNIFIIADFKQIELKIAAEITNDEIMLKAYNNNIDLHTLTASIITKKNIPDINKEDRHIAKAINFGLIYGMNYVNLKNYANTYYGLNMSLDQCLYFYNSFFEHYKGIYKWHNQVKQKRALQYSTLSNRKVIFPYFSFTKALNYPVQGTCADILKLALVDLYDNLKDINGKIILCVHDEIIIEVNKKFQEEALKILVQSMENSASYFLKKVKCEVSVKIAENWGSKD

COc1ccccc1CCC(=O)N1CCc2c(nc3cc(-c4ccccc4)[nH]n3c2=O)C1 [Molecule 7, COc1ccccc1CCC(=O)N1CCc2c(C1)nc1n(c2=O)[nH]c(c1)c1ccccc1]
DNA Pol ('DNA Pol'; screening value, unit not given; 90 min, 10 µM): 40
% inhibition Apo pol 10' (DRC-1; 10'; concentration 2.5): 2.75%
% inhibition Apo pol 10' (DRC-1; 10'; concentration 5): 18%
% inhibition Apo pol 10' (DRC-1; 10'; concentration 10): 67%
% inhibition Apo pol 10' (DRC-1; 10'; concentration 20): 82%
% inhibition Apo pol 10' (DRC-1; 10'; concentration 40): 78%
% inhibition Apo pol 10' (DRC-1; 10'; concentration 80): 59%
% inhibition Apol 90' (DRC-1; 90'; concentration 2.5): 0.0541%
% inhibition Apol 90' (DRC-1; 90'; concentration 5): 9%
% inhibition Apol 90' (DRC-1; 90'; concentration 10): 54%
% inhibition Apol 90' (DRC-1; 90'; concentration 20): 73%
% inhibition Apol 90' (DRC-1; 90'; concentration 40): 72%
% inhibition Apol 90' (DRC-1; 90'; concentration 80): 63%
% inhibition apPOL 180' (DRC-1; 180'; concentration 2.5): -3.58%
% inhibition apPOL 180' (DRC-1; 180'; concentration 5): 1.16%
% inhibition apPOL 180' (DRC-1; 180'; concentration 10): 38%
% inhibition apPOL 180' (DRC-1; 180'; concentration 20): 59%
% inhibition apPOL 180' (DRC-1; 180'; concentration 40): 58%
% inhibition apPOL 180' (DRC-1; 180'; concentration 80): 49%
% inhibition Apo pol 5' (DRC-2, 5', concentration 2.5): 6%
% inhibition Apo pol 5' (DRC-2, 5', concentration 5): 26%
% inhibition Apo pol 5' (DRC-2, 5', concentration 10): 48%
% inhibition Apo pol 5' (DRC-2, 5', concentration 20): 51%
% inhibition Apo pol 5' (DRC-2, 5', concentration 40): 44%
% inhibition Apo pol 5' (DRC-2, 5', concentration 80): 21%
% inhibition Apol 40' (DRC-2, 40', concentration 2.5): 5.58%
% inhibition Apol 40' (DRC-2, 40', concentration 5): 30%
% inhibition Apol 40' (DRC-2, 40', concentration 10): 57%
% inhibition Apol 40' (DRC-2, 40', concentration 20): 64%
% inhibition Apol 40' (DRC-2, 40', concentration 40): 61%
% inhibition Apol 40' (DRC-2, 40', concentration 80): 44%
% inhibition ApPOL 90' (DRC-2, 90', concentration 2.5): 5%
% inhibition ApPOL 90' (DRC-2, 90', concentration 5): 28%
% inhibition ApPOL 90' (DRC-2, 90', concentration 10): 57%
% inhibition ApPOL 90' (DRC-2, 90', concentration 20): 65%
% inhibition ApPOL 90' (DRC-2, 90', concentration 40): 62%
% inhibition ApPOL 90' (DRC-2, 90', concentration 80): 47%
% inhibition apPOL 180' (DRC-2, 180', concentration 2.5): 3%
% inhibition apPOL 180' (DRC-2, 180', concentration 5): 21%
% inhibition apPOL 180' (DRC-2, 180', concentration 10): 48%
% inhibition apPOL 180' (DRC-2, 180', concentration 20): 59%
% inhibition apPOL 180' (DRC-2, 180', concentration 40): 55%
% inhibition apPOL 180' (DRC-2, 180', concentration 80): 41%
% inhibition apPOL 180' (conc 5 (unit not given); 180'; DRC-2): 21%
% inhibition Apo pol 5' (conc 10 (unit not given); 5'; DRC-2): 48%
% inhibition Apol 40' (conc 10 (unit not given); 40'; DRC-2): 57%
% inhibition ApPOL 90' (conc 10 (unit not given); 90'; DRC-2): 57%
% inhibition apPOL 180' (conc 10 (unit not given); 180'; DRC-2): 48%
% inhibition apPOL 180' (conc 20 (unit not given); 180'; DRC-2): 59%
% inhibition apPOL 180' (conc 20 (unit not given); 180'; first dose-response set): 59%
% inhibition Apo pol 5' (conc 40 (unit not given); 5'; DRC-2): 44%
% inhibition Apo pol 5' (conc 80 (unit not given); 5'; DRC-2): 21%
% inhibition Apo pol 10' (conc 80 (unit not given); 10'; first dose-response set): 59%
% inhibition Apol 40' (conc 80 (unit not given); 40'; DRC-2): 44%
DNA Pol (primary screen hit value, DNA Pol (186 hits); 90 min, 10 µM): 40

COc1ccccc1CCC(=O)N1CCc2c(nc3cc(-c4ccccc4)[nH]n3c2=O)C1 [Molecule 7]
pIC50 [1]: 5.14

CCCCc1ccc(NC(=O)CSc2nc(C3CCCCC3)c(C#N)c(=O)[nH]2)c(C)c1 [Molecule 8, CCCCc1ccc(c(c1)C)NC(=O)CSc1nc(C2CCCCC2)c(c(=O)[nH]1)C#N]
DNA Pol [2]: 95
% inhibition Apo pol 10' (DRC-1; 10'; concentration 2.5): -1.955%
% inhibition Apo pol 10' (DRC-1; 10'; concentration 5): 13.3371%
% inhibition Apo pol 10' (DRC-1; 10'; concentration 10): 62.6303%
% inhibition Apo pol 10' (DRC-1; 10'; concentration 20): 77.3201%
% inhibition Apo pol 10' (DRC-1; 10'; concentration 40): 94.4176%
% inhibition Apo pol 10' (DRC-1; 10'; concentration 80): 94.8178%
% inhibition Apol 90' (DRC-1; 90'; concentration 2.5): 1.126%
% inhibition Apol 90' (DRC-1; 90'; concentration 5): 14.1038%
% inhibition Apol 90' (DRC-1; 90'; concentration 10): 58.4598%
% inhibition Apol 90' (DRC-1; 90'; concentration 20): 77.2827%
% inhibition Apol 90' (DRC-1; 90'; concentration 40): 94.9708%
% inhibition Apol 90' (DRC-1; 90'; concentration 80): 95.9505%
% inhibition apPOL 180' (DRC-1; 180'; concentration 2.5): 1.158%
% inhibition apPOL 180' (DRC-1; 180'; concentration 5): 7.482%
% inhibition apPOL 180' (DRC-1; 180'; concentration 10): 46.1044%
% inhibition apPOL 180' (DRC-1; 180'; concentration 20): 69.2922%
% inhibition apPOL 180' (DRC-1; 180'; concentration 40): 95.0497%
% inhibition apPOL 180' (DRC-1; 180'; concentration 80): 96.1544%
% inhibition Apo pol 5' [3]: 40%
% inhibition Apol 40' (DRC-2, 40', concentration 20 (unit not given)): 48%
% inhibition ApPOL 90' (DRC-2, 90', concentration 20 (unit not given)): 48%
% inhibition apPOL 180' (DRC-2, 180', concentration 20 (unit not given)): 40%
% inhibition Apo pol 5' (DRC-2; 5'; concentration 2.5): -2.67%
% inhibition Apo pol 5' (DRC-2; 5'; concentration 5): 2.83%
% inhibition Apo pol 5' (DRC-2; 5'; concentration 10): 12%
% inhibition Apo pol 5' (DRC-2; 5'; concentration 20): 40%
% inhibition Apo pol 5' (DRC-2; 5'; concentration 40): 61%
% inhibition Apo pol 5' (DRC-2; 5'; concentration 80): 65%
% inhibition Apol 40' (DRC-2; 40'; concentration 2.5): 1.81%
% inhibition Apol 40' (DRC-2; 40'; concentration 5): 5%
% inhibition Apol 40' (DRC-2; 40'; concentration 10): 16%
% inhibition Apol 40' (DRC-2; 40'; concentration 20): 48%
% inhibition Apol 40' (DRC-2; 40'; concentration 40): 72%
% inhibition Apol 40' (DRC-2; 40'; concentration 80): 79%
% inhibition ApPOL 90' (DRC-2; 90'; concentration 2.5): 1.18%
% inhibition ApPOL 90' (DRC-2; 90'; concentration 5): 4%
% inhibition ApPOL 90' (DRC-2; 90'; concentration 10): 15%
% inhibition ApPOL 90' (DRC-2; 90'; concentration 20): 48%
% inhibition ApPOL 90' (DRC-2; 90'; concentration 40): 73%
% inhibition ApPOL 90' (DRC-2; 90'; concentration 80): 83%
% inhibition apPOL 180' (DRC-2; 180'; concentration 2.5): -0.672%
% inhibition apPOL 180' (DRC-2; 180'; concentration 5): -0.274%
% inhibition apPOL 180' (DRC-2; 180'; concentration 10): 9%
% inhibition apPOL 180' (DRC-2; 180'; concentration 20): 40%
% inhibition apPOL 180' (DRC-2; 180'; concentration 40): 71%
% inhibition apPOL 180' (DRC-2; 180'; concentration 80): 86%
DNA Pol [4]: 95

CCCCc1ccc(NC(=O)CSc2nc(O)c(C#N)c(C3CCCCC3)n2)c(C)c1 [Molecule 8]
pIC50 [1]: 5.06

NC(=O)c1cc[n+](CC2=C(C(=O)[O-])N3C(=O)[C@@H](NC(=O)[C@@H](c4ccccc4)S(=O)(=O)[O-])[C@H]3SC2)cc1.[Na+] [Molecule 9, O=C([C@H](S(=O)(=O)[O-])c1ccccc1)N[C@@H]1C(=O)N2[C@@H]1SCC(=C2C(=O)[O-])C[n+]1ccc(cc1)C(=O)N.[Na+]]
DNA Pol [2]: 104
% inhibition Apo pol 10' (DRC-1; 10'; concentration 2.5): 39.849%
% inhibition Apo pol 10' (DRC-1; 10'; concentration 5): 54.1804%
% inhibition Apo pol 10' (DRC-1; 10'; concentration 10): 77.8206%
% inhibition Apo pol 10' (DRC-1; 10'; concentration 20): 94.0018%
% inhibition Apo pol 10' (DRC-1; 10'; concentration 40): 97.9008%
% inhibition Apo pol 10' (DRC-1; 10'; concentration 80): 96.5672%
% inhibition Apol 90' (DRC-1; 90'; concentration 2.5): 3.442%
% inhibition Apol 90' (DRC-1; 90'; concentration 5): 17.2714%
% inhibition Apol 90' (DRC-1; 90'; concentration 10): 53.7945%
% inhibition Apol 90' (DRC-1; 90'; concentration 20): 88.3864%
% inhibition Apol 90' (DRC-1; 90'; concentration 40): 97.5%
% inhibition Apol 90' (DRC-1; 90'; concentration 80): 97.5161%
% inhibition apPOL 180' (DRC-1; 180'; concentration 2.5): -2.063%
% inhibition apPOL 180' (DRC-1; 180'; concentration 5): 5.595%
% inhibition apPOL 180' (DRC-1; 180'; concentration 10): 40.8592%
% inhibition apPOL 180' (DRC-1; 180'; concentration 20): 84.7929%
% inhibition apPOL 180' (DRC-1; 180'; concentration 40): 96.7618%
% inhibition apPOL 180' (DRC-1; 180'; concentration 80): 97.7754%
% inhibition Apo pol 5' [3]: 56%
% inhibition Apol 40' (DRC-2, 40', concentration 40 (unit not given)): 76%
% inhibition Apol 40' (DRC-2, 40', concentration 80 (unit not given)): 76%
% inhibition apPOL 180' (DRC-2, 180', concentration 40 (unit not given)): 83%
% inhibition apPOL 180' (DRC-2, 180', concentration 80 (unit not given)): 83%
% inhibition Apo pol 5' (DRC-2; 5'; concentration 2.5): 21%
% inhibition Apo pol 5' (DRC-2; 5'; concentration 5): 28%
% inhibition Apo pol 5' (DRC-2; 5'; concentration 10): 47%
% inhibition Apo pol 5' (DRC-2; 5'; concentration 20): 56%
% inhibition Apo pol 5' (DRC-2; 5'; concentration 40): 58%
% inhibition Apo pol 5' (DRC-2; 5'; concentration 80): 56%
% inhibition Apo pol 5' (DRC-2; 5'; concentration 80 (unit not given)): 56%
% inhibition Apol 40' (DRC-2; 40'; concentration 2.5): -0.192%
% inhibition Apol 40' (DRC-2; 40'; concentration 5): 15%
% inhibition Apol 40' (DRC-2; 40'; concentration 10): 49%
% inhibition Apol 40' (DRC-2; 40'; concentration 20): 71%
% inhibition Apol 40' (DRC-2; 40'; concentration 40): 76%
% inhibition Apol 40' (DRC-2; 40'; concentration 80): 76%
% inhibition ApPOL 90' (DRC-2; 90'; concentration 2.5): -4%
% inhibition ApPOL 90' (DRC-2; 90'; concentration 5): 8%
% inhibition ApPOL 90' (DRC-2; 90'; concentration 10): 46%
% inhibition ApPOL 90' (DRC-2; 90'; concentration 20): 74%
% inhibition ApPOL 90' (DRC-2; 90'; concentration 40): 81%
% inhibition ApPOL 90' (DRC-2; 90'; concentration 80): 80%
% inhibition apPOL 180' (DRC-2; 180'; concentration 2.5): 1.56%
% inhibition apPOL 180' (DRC-2; 180'; concentration 5): 9%
% inhibition apPOL 180' (DRC-2; 180'; concentration 10): 41%
% inhibition apPOL 180' (DRC-2; 180'; concentration 20): 75%
% inhibition apPOL 180' (DRC-2; 180'; concentration 40): 83%
% inhibition apPOL 180' (DRC-2; 180'; concentration 80): 83%
DNA Pol [4]: 104

NC(=O)c1cc[n+](CC2=C(C(=O)O)N3C(=O)[C@@H](NC(=O)[C@@H](c4ccccc4)S(=O)(=O)[O-])[C@H]3SC2)cc1 [Molecule 9]
pIC50 [1]: 5.36
